Publication PMC7073886, “Structure–Bioactivity Relationships of Lapatinib Derived Analogs against Schistosoma mansoni” (ACS Medicinal Chemistry Letters, 2020)
Converted amounts (≈) assume the structure as drawn. Where two headings read alike, the source gives them in different places.

Assays:
[1] = Human liver microsomal Clint; assay type: in vitro ADME; details: human liver microsomes, intrinsic clearance
[2] = Aqueous pH 7.4 solubility; assay type: physicochemical; details: phosphate buffer pH 7.4, 25 °C, 20-24 h, read-out: aq sol (aqueous solubility)
[3] = Human plasma protein binding (equilibrium dialysis); assay type: in vitro ADME; details: for human PPB (plasma protein binding): 10 µM, 37 °C
HepG2 cells = assay: Drug toxicity to HepG2 cells (MTT); assay type: cell-based; details: for HepG2 TC50: HepG2 cells, 48 hours incubation, MTT
[4] = Log D7.4 shake-flask octanol-water; assay type: physicochemical; details: pH 7.4
Rat hepatocyte Clint = assay type: in vitro ADME; details: rat hepatocytes, intrinsic clearance
adult S. mansoni = assay: Phenotypic screen of adult S. mansoni worms, severity scores and descriptors; assay type: cell-based, Schistosoma mansoni; details: for Severity Scores (10 μM) 1 h / Severity Scores (10 μM) 5 h / Severity Scores (10 μM) 24 h / Severity Scores (10 μM) 48 h / Descriptors (10 µM) 1 h / Descriptors (10 µM) 5 h / Descriptors (10 µM) 24 h / Descriptors (10 µM) 48 h: adult S. mansoni; for Severity Scores (10 μM) 1 h / Severity Scores (10 μM) 5 h / Severity Scores (10 μM) 24 h / Severity Scores (10 μM) 48 h: scale 0 (no activity) to 4 (maximal activity); for Descriptors (10 µM) 1 h / Descriptors (10 µM) 5 h / Descriptors (10 µM) 24 h / Descriptors (10 µM) 48 h: phenotypic descriptors
Method in brief: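 Adult S. mansoni (NMRI isolate, ≥42 days old) were co-incubated with compounds and changes in motility, density, shape and adherence recorded visually over time and concentration. Descriptors converted to severity scores from 0 (no activity) to 4 (maximal).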

| HLM Clint [1] [μL/min/mg protein] | solubility [2] [µM] | human PPB (plasma protein binding) [3] [%] | LogD 7.4 [4] | RH CLint (Rat hepatocyte Clint) [µL/min/10^6 cells] | SMILES | HepG2 TC50 (HepG2 cells) [µM] | Severity Scores (10 μM) 1 h (adult S. mansoni; 10 μM) | Severity Scores (10 μM) 5 h (adult S. mansoni; 10 μM) | Severity Scores (10 μM) 24 h (adult S. mansoni; 10 μM) | Severity Scores (10 μM) 48 h (adult S. mansoni; 10 μM) | Descriptors (10 µM) 1 h (adult S. mansoni) | Descriptors (10 µM) 5 h (adult S. mansoni) | Descriptors (10 µM) 24 h (adult S. mansoni) | Descriptors (10 µM) 48 h (adult S. mansoni) | other results |
| --- | --- | --- | --- | --- | --- | --- | --- | --- | --- | --- | --- | --- | --- | --- | --- |
| 59 | 7 (≈ 3.17 µg/mL) | 70 | 2.3 | 20 | O=S(=O)(c1ccc(-c2ccc3nccc(NC4CCOCC4)c3c2)cc1)N1CCOCC1 [S3f] | 16 | 1 | 1 | 1 | 1 | – | – | – | – | – |
| 110 | 200 (≈ 96.3 µg/mL) | 82 | 2.8 | 100 | O=S(=O)(c1ccc(-c2ccc3nccc(NCCC4CCOCC4)c3c2)cc1)N1CCOCC1 [S3h] | 21 | 0 | 0 | 0 | 0 | none | none | none | none | – |
| 210 | 1.4 (≈ 0.627 µg/mL) | 96 | 3.3 | 32 | O=S(=O)(c1ccc(-c2ccc3nccc(Nc4ccncn4)c3c2)cc1)N1CCOCC1 [S3a] | > 34 | 0 | 0 | 0 | 0 | none | none | none | none | – |

The next lines start with the molecule.

| SMILES | HLM Clint [1] [μL/min/mg protein] | solubility [2] [µM] | human PPB (plasma protein binding) [3] [%] | LogD 7.4 [4] | RH CLint (Rat hepatocyte Clint) [µL/min/10^6 cells] | HepG2 TC50 (HepG2 cells) [µM] | Severity Scores (10 μM) 1 h (adult S. mansoni; 10 μM) | Severity Scores (10 μM) 5 h (adult S. mansoni; 10 μM) | Severity Scores (10 μM) 24 h (adult S. mansoni; 10 μM) | Severity Scores (10 μM) 48 h (adult S. mansoni; 10 μM) | Descriptors (10 µM) 1 h (adult S. mansoni) | Descriptors (10 µM) 5 h (adult S. mansoni) | Descriptors (10 µM) 24 h (adult S. mansoni) | Descriptors (10 µM) 48 h (adult S. mansoni) | other results |
| --- | --- | --- | --- | --- | --- | --- | --- | --- | --- | --- | --- | --- | --- | --- | --- |
| CN1CCCN(c2ncc(-c3ccc4nccc(Nc5cnccn5)c4c3)cn2)CC1 [S3i] | 48 | 990 (≈ 408 µg/mL) | 81 | 2.5 | 12 | > 37 | 0 | 0 | 0 | – | none | none | none | – | – |
| c1cnc(Nc2ccnc3cc(-c4cnc(N5CCOCC5)nc4)ccc23)cn1 [S2d] | > 300 | 0.7 (≈ 0.27 µg/mL) | 96 | 3.7 | 93 | 39 | 2 | 1 | 0 | 0 | Shrunk, S | – | none | none | – |
| Cc1cnc(Nc2ccnc3cc(-c4cnc(N5CCN(C)CC5)nc4)ccc23)cn1 [5a] | – | – | – | – | – | – | 1 | 4 | 4 | 4 | – | – | – | – | microsomal CLint ([1]; read-out: HLM Clint): 240 µL/min/mg; solubility ([2]; aqueous buffer, thermodynamic from solid): 13 µM (≈ 5.36 µg/mL); fraction unbound at 10 µM ([3]; pH 7.4, 37 °C, read-out: human PPB (plasma protein binding) (converted)): 0.07; increase in toxicity against HepG2 cells compared with 3 (HepG2 cells; relative to 3): greater than 1.9 fold; logD [4]: 3.6; hepatocyte CLint (Rat hepatocyte Clint; read-out: RH CLint): 150 µL/min/1e6 cells; bioactivity against adult S. mansoni (adult S. mansoni; adult schistosomes, 10 μM): severe phenotypic response after just 5 h |
